# Measurements published in US20230227838A1, “ENHANCED CELL SURVIVAL AGAINST BIOTIC AND ABIOTIC STRESSES THROUGH SALICYLICK ACID-INDUCED NPR1 CONDENSATES” (priority 2020, published 2023).
# T1: NPR1-GFP (Arabidopsis thaliana, UniProt P93002)
# T1 construct: expressed in transfected cells; host or cells: Arabidopsis Col-0 seedlings, Agrobacterium-mediated transient expression
# T1 sequence (P93002 1-593): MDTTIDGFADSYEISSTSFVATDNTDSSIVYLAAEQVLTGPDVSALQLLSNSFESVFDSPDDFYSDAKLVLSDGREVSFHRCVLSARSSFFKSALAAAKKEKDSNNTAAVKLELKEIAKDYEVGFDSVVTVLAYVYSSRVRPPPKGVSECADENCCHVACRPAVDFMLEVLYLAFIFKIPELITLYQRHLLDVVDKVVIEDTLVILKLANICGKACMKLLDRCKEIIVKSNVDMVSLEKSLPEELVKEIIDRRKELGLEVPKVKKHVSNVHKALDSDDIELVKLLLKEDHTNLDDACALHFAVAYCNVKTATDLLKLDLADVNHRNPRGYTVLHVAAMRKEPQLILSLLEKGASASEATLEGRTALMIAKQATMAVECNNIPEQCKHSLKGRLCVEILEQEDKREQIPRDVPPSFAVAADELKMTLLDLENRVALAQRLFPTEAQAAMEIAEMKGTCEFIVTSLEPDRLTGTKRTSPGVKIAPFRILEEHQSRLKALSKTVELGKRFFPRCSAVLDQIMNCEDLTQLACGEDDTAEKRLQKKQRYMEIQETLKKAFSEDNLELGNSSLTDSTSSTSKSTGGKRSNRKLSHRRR
# B1: sim3: SUMOylation-deficient mutant of NPR1 (protein)
# chain: MDTTIDGFADSYEISSTSFVATDNTDSSIVYLAAEQVLTGPDVSALQLLSNSFESVFDSPDDFYSDAKLVLSDGREVSFHRCVLSARSSFFKSALAAAKKEKDSNNTAAVKLELKEIAKDYEVGFDSVVTVLAYVYSSRVRPPPKGVSECADENCCHVACRPAVDFMLEVLYLAFIFKIPELITLYQRHLLDVVDKVVIEDTLVILKLANICGKACMKLLDRCKEIIVKSNVDMVSLEKSLPEELVKEIIDRRKELGLEVPKVKKHVSNVHKALDSDDIELVKLLLKEDHTNLDDACALHFAVAYCNVKTATDLLKLDLADVNHRNPRGYTVLHVAAMRKEPQLAASALEKGASASEATLEGRTALMIAKQATMAVECNNIPEQCKHSLKGRLCVEILEQEDKREQIPRDVPPSFAVAADELKMTLLDLENRVALAQRLFPTEAQAAMEIAEMKGTCEFIVTSLEPDRLTGTKRTSPGVKIAPFRILEEHQSRLKALSKTVELGKRFFPRCSAVLDQIMNCEDLTQLACGEDDTAEKRLQKKQRYMEIQETLKKAFSEDNLELGNSSLTDSTSSTSKSTGGKRSNRKLSHRRR
# modifications: left off: small tags and cut ends
# notes: SUMOylation-deficient mutant of NPR1
# Tests used:
# [1] = biological target: T1, NPR1-GFP; assay: Localization of NPR1-GFP and sim3-GFP, transient expression in Arabidopsis seedlings; format: cell-based; settings: for nuclear-cytoplasmic partitioning of NPR1-GFP: 2 hr
# [2] = test system: EDS1; assay: Interaction with EDS1 (co-IP in planta, pull-down in E. coli); format: binding, Arabidopsis thaliana; settings: in planta (1 mM SA 5 hr) and in E. coli
# From the text: Plasmid construction and E. coli-based ubiquitination: The coding sequences for all Arabidopsis genes were amplified from cDNA. Point mutations of AtNPR1 (AT1G64280) were generated using the QuikChange II site-directed mutagenesis kit (Agilent). Overlap PCR was used to generate the deletion/truncation mutations of AtCUL3A (AT1G26830) and AtNPR1. The WT and mutated coding sequences for all genes and gene fusions were sub-cloned into the pDONR207 gateway donor vector and confirmed by sequencing. The obtained entry vectors were recombined into either plant or E. coli destination vectors without or with an N- or C-terminal tag. For in planta expression, genes were recombined into the plant binary vectors pK7FWG2, pSITE-4NB and pLN462 to generate C-terminal eGFP, mCherry and HA fusions, respectively; into pK7WGF2, pEG201, pEG202, pEG203 and pEG204 to generate N-terminal eGFP, HA, FLAG, Myc and V5 fusions, respectively. […] For bimolecular fluorescence complementation (BiFC), entry vectors carrying the coding sequences of genes and their mutant variants were recombined into the pSITE-cEYFP-N1 binary vector for C-terminal fusion with the cYFP half (YC), or into the pSITE-nEYFP-C1 for N-terminal fusion with the nYFP half (YN). […]
Molecule,nuclear-cytoplasmic partitioning of NPR1-GFP ([1]; 1 mM SA),nuclear-cytoplasmic partitioning of NPR1-GFP ([1]; 5 mM SA),formation of NPR1-GFP bodies in nucleus and cytoplasm ([1]; SA treatment 2 hr),interaction with EDS1 [2],subcellular localization ([1]; after SA treatment),"cytoplasmic body formation ([1]; lower SA concentration (1 mM), Arabidopsis seedlings)"
"O=C(O)c1ccccc1O [SA, salicylic acid]",predominant nuclear accumulation of NPR1-GFP,fluorescence was detected also in the cytoplasm,induced formation of discrete NPR1-GFP bodies,,,
"NPR1: wild-type Arabidopsis thaliana NPR1 protein, positive regulator of systemic acquired resistance",,,,direct interaction,,
B1,,,,could interact,predominant cytoplasmic localization,cytoplasmic bodies were also observed at the lower SA concentration
